Test results as given in paper PMC12813973, “Consequences of Peptide Macrocyclization Revealed by Virus-Inspired β‑Hairpin Mimetics” (ACS Chemical Biology, 2025).
Where two headings read alike, the source gives them in different places.

Legend:
STAT1 [1] = target: T1, STAT1 (Homo sapiens, UniProt P42224); test: Isothermal titration calorimetry (ITC) of peptide binding to STAT1
T1 construct: full-length STAT1 (Uniprot #P42224-1) was expressed in E. coli; His tag (pEXP-NHis vector) (N); made in house; host or cells: E. coli T7 Express
T1 sequence (P42224 1-750): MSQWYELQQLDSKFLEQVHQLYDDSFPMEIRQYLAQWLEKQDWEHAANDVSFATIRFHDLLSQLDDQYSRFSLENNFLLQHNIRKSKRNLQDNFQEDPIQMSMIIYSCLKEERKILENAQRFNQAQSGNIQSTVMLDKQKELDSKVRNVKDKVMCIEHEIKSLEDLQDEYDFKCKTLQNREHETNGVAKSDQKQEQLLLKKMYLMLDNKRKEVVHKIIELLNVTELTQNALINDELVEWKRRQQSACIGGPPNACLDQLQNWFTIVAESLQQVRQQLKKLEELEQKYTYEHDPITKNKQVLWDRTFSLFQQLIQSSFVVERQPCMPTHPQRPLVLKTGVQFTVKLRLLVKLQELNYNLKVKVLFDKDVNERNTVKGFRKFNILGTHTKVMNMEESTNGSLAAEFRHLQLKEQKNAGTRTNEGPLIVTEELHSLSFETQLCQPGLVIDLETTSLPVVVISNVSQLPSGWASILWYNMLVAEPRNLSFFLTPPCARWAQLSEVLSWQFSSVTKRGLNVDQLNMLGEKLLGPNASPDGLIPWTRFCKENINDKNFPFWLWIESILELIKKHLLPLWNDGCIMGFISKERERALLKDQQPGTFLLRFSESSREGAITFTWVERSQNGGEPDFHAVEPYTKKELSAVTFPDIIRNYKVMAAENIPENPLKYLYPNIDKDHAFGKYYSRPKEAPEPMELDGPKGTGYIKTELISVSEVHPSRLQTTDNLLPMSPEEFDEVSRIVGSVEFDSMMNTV
Protocol: To determine affinities and thermodynamic profiles of binding, we performed isothermal titration calorimetry (ITC) experiments for peptides 1, 2, 3, 4, 7, and 8 (Figures A,B and S1,S2, Table S1). […] The experiments were repeated in two different buffer systems, TBST (50 mM Tris pH 8.0, 300 mM NaCl, 0.01% Tween-20) and PBST ([…], 150 mM NaCl, 0.01% Tween-20), to account for possible buffer protonation enthalpy artifacts. […]
Isothermal titration calorimetry (ITC)
ITC experiments were performed using a PEAQ ITC instrument (Malvern Panalytical) in either TBST (50 mM Tris pH 8.0, 300 mM NaCl, 0.5 mM TCEP, 0.01% Tween -20) or PBST (10 mM sodium phosphate pH 7.4, 150 mM NaCl, 0.01% Tween -20) as reaction buffers. STAT1 protein was buffer -exchanged into reaction buffer supplemented with 2% DMSO on a NAP -5 deslating column (Cytiv a #17085301) and its concentration was adjusted to 10 or 20 μM.
Peptides were diluted in reaction buffer from DMSO stocks to a matching 2% DMSO concentration. Peptide concentrations were adjusted to approximately 100-200 μM. ITC experiments were performed with STAT1 in the cell and peptides in the syringe at 25°C, with 750 RPM stirring, DP = 4 μcal/sec. 18 injections of 2 μl were performed over a 50 min titration.
Thermogram integra tion and isotherm fitting were performed using the PEAQ ITC analysis software (Malvern Panalytical ). Isotherms were fitted using a 1:1 binding model. Due to challenges in determining peptide concentrations with high accuracy , protein concentrations and stoichiometry (N=1.0) were kept constant during isotherm fitting, whereas peptide concentrations were allowed to vary. Fixing a single reactant concentration during fitting is acceptable given the sufficiently high C -values and isotherm curvature observed in the […]
Offset subtraction was implemented to remove injection heats.

STAT1 [2] = target: T1, STAT1; test: Grating-coupled interferometry (GCI) waveRAPID kinetics, immobilised full-length STAT1; type: binding; conditions: for kd / kon at 0.5 µM: analyte 0.5 µM; for kon at 0.5 µM: read-out: ka
Source text: Understanding the molecular determinants of kinetic rate constants of binding (k a, k d) can aid the design of pharmacological probes with longer target engagement, which is beneficial for drug efficacy and decreased toxicity. , We characterized the binding kinetics of 018-derived macrocycles by using grating-coupled interferometry (GCI). We used waveRAPID, a regeneration-free kinetic binding assay that applies sequential analyte pulses of increasing duration onto a GCI biosensor surface with an immobilized target (Figures A, and S3,S4, Table S2).
Grating coupled interferometry (GCI)
GCI experiments were performed on a Creoptix WaveDELTA instrument (Malvern Panalytical). Full-length STAT1 or STAT3 were immobilised on a 4PCH chip (Malvern Panalytical #4PCH-03) to a density 2000-8000 pg/mm2 using EDC/NHS activation followed by amine coupling. Briefly, proteins (500 nM) were applied onto an activated chip in 10 mM MES pH 6.5, 20 mM NaCl, after which the chip surface was passivated with 1M ethanolamine, pH 8.0.
The kinetic measurements were perfor med using 20 mM HEPES pH 7.5, 300 mM NaCl, 0.01% Tween-20, 0.0005% DMSO as running buffer. Peptides were tested at 0.5 or 10 μM concentration using the waveRAPID kinetics experiment with the tight binder or intermediate binder mode, respectively.[4] Sensorgrams were fitted in the waveControl software (Malven Panalytical) using the 1:1 kinetic model. […]

STAT1 [3] = target: T1, STAT1; test: Fluorescence polarization competition assay with fluorescein-labelled pIFNGR1 docking site peptide probe; type: binding; conditions: 10 nM fluorescein pIFNGR1 probe, STAT1 1.5 μM, 20 mM Tris pH 8.0, 300 mM NaCl, 0.1% Tween-20, 0.5 mM TCEP, 2.5% DMSO, room temperature; four parameter logistic fit; read-out: IC50 (FP competition, pIFNGR1 probe displacement)
[4] = PBST, replicate 1 (first listed run, Table S1)
[5] = PBST, replicate 2 (second listed run, Table S1)
[6] = PBST, replicate 3 (third listed run, Table S1)
[7] = TBST, replicate 1 (first listed run, Table S1)
[8] = TBST, replicate 2 (second listed run, Table S1)
[9] = TBST, replicate 3 (third listed run, Table S1)
[10] = replicate 1 (first listed run, Table S2)
[11] = replicate 2 (second listed run, Table S2)
[12] = replicate 3 (third listed run, Table S2)

## CC[C@H](C)[C@H](NC(=O)[C@H](Cc1ccccc1)NC(=O)[C@@H](NC(=O)[C@H](CO)NC(=O)[C@H](Cc1c[nH]c2ccccc12)NC(=O)[C@H](CCSC)NC(C)=O)C(C)C)C(=O)N[C@@H](Cc1c[nH]cn1)C(=O)NCC(=O)N[C@@H](Cc1c[nH]cn1)C(=O)N[C@@H](CC(=O)O)C(=O)NCC(=O)N[C@@H](CO)C(=O)N[C@@H](CC(N)=O)C(=O)N[C@@H](CCCCN)C(=O)NCC(=O)N[C@@H](CO)C(=O)N[C@@H](CCCCN)C(=O)N[C@H](C(=O)N[C@@H](Cc1ccc(O)cc1)C(=O)N[C@H](C(N)=O)[C@@H](C)O)[C@@H](C)O [Peptide 1]
STAT1 [1]; PBST pH 7.4 (NaPi, 150 mM NaCl, 0.01% Tween-20), average of 2–3 technical replicates, read-out: KD (ITC, summary Fig 2B)
  Kd: 253 nM
STAT1 [1]; [4]
  -T∆S: 13.8 kcal/mol
  ∆G: -9.00 kcal/mol
  ∆H: -22.8 kcal/mol
STAT1 [1]; [5]
  -T∆S: 12.7 kcal/mol
  ∆G: -9.17 kcal/mol
  ∆H: -21.8 kcal/mol
STAT1 [1]; [6]
  -T∆S: 13.7 kcal/mol
  ∆G: -8.87 kcal/mol
  ∆H: -22.6 kcal/mol
STAT1 [1]; TBST (50 mM Tris pH 8.0, 300 mM NaCl, 0.01% Tween-20), 25°C, 1:1 model, average of three technical replicates ± SD (text and Fig 2A), SD, read-out: KD (ITC)
  Kd: 533 ± 20 nM
STAT1 [1]; TBST, mean ± SD, SD
  -TΔS (ITC): 10.10 ± 1.48 kcal/mol
  ΔH (ITC): -18.56 ± 1.55 kcal/mol
STAT1 [1]; [7]
  -T∆S: 9.86 kcal/mol
  ∆G: -8.54 kcal/mol
  ∆H: -18.1 kcal/mol
STAT1 [1]; [8]
  -T∆S: 8.75 kcal/mol
  ∆G: -8.58 kcal/mol
  ∆H: -17.3 kcal/mol
STAT1 [1]; [9]
  -T∆S: 11.7 kcal/mol
  ∆G: -8.55 kcal/mol
  ∆H: -20.3 kcal/mol
STAT1 [2]; 20 mM HEPES pH 7.5, 300 mM NaCl, 0.01% Tween-20, 1:1 kinetic model, average of 2–4 technical replicates ± SD, SD
  Kd: 85.8 ± 6.4 nM
STAT1 [2]; STAT1, GCI, read-out: target residence time τ (τ = 1/kd) (converted)
  residence time: 0.8 min
STAT1 [2]; [10]
  kd: 0.0221 s⁻¹
  kon at 0.5 µM: 241000 M⁻¹ s⁻¹
STAT1 [2]; [11]
  kd: 0.0172 s⁻¹
  kon at 0.5 µM: 217000 M⁻¹ s⁻¹
STAT1 [2]; [12]
  kd: 0.0226 s⁻¹
  kon at 0.5 µM: 262000 M⁻¹ s⁻¹
STAT1 [3]
  IC50: 4.3 µM
